Source: patent US6569638B1, “Method for screening compounds for the treatment of neoplasia” (Cell Pathways, Inc, priority 2000, dated 2003)

Experiments:
[1] = tested on: JNK1 in SW480 colon cancer cells; assay: JNK1 immunoprecipitation in vitro kinase assay with GST-c-Jun(1-79); type: cell-based, human; conditions: SW480 cells
Description: The cells were lysed, JNK1 immunoprecipitated with an anti-JNK1 antibody, and the immunoprecipitate (“IP”) assayed for in vitro kinase activity with GST-c-Jun(1-79) as the substrate. The experiments were repeated three times with similar results. Fold activation was measured using a Phosphor Imager.
FIG. 1B: SW480 cells were treated with Compound A (1 μM) for the indicated time periods and in vitro JNK1 kinase activity was determined as described above.
FIG. 2A SW480 cells were treated with either DMSO (−) or Compound A, 0.1 μM; dbcGMP, 500 μM; YC-1, 50 μM; MY-5445, 50 μM; dipyridamole, 10 μM or dbcAMP, 500 μM for one hour. The cells were lysed, JNK1 immunoprecipitated, and the IP assayed for in vitro kinase activity as described in FIG. 1A.
FIG. 2B SW480 cells were pre-treated with either DMSO, KT5720 (2 μM) or Rp-8-pCPT-cGMPS (2 μM) for 2 hours and then treated with Compound B (0, 1 or 10 μM) for one hour. The cells were lysed and assayed for JNK1 activation in the IP as described above.
These concentrations were chosen since they provided optimal induction of apoptosis. Endogenous JNK1 was immunoprecipitated with anti-JNK1 antibody and in vitro kinase assays were performed with GST-c-Jun(1-79) as the substrate. […]
However, the precise role of PKG in signal transduction pathways is not known. […] As a control, KT5720 was used as a protein kinase A (“PKA”)-specific inhibitor. SW480 cells were treated with either DMSO, KT5720 (2 μM) or Rp-8-pCPT-cGMPS (2 μM) for 2 hours and then treated with either DMSO or Compound B (1 or 10 μM) for one hour. Cell extracts were collected and assayed for JNK1 activation.

[2] = tested on: caspase-3 in SW480 cells; assay: Caspase-3 activity with Ac-DEVD-AFC substrate; type: cell-based, human; conditions: 24 hours, sulindac sulfide 200 μM, exisulind 600 μM, Compound A 1 μM, Compound B 10 μM
Description: The cells were lysed and the extracts assayed for caspase-3 activity using Ac-DEVD-AFC as the substrate, in the presence or absence of the caspase-3 inhibitor Ac-DEVD-CHO. Caspase-3 activity was calculated by subtracting the AFC fluorescence (excitation; 400 nm, emission; 505 nm) in the presence of Ac-DEVD-CHO from the AFC fluorescence in the absence of Ac-DEVD-CHO.
Protein extracts were then prepared and caspase-3 activity was measured with Ac-DEVD-AFC as the substrate, in the presence or absence of the caspase-3 inhibitor Ac-DEVD-CHO. […] Similar findings were obtained with HCT116 and HT29 cells (data not shown).

[3] = tested on: SEK1 in SW480 cells; assay: SEK1 phosphorylation by Western blot (anti-phospho-SEK1 Thr223); type: cell-based, human; conditions: Compound A 1 μM
Description: FIG. 3A: SW480 cells were treated with Compound A (1 μM), collected at the indicated time points, and cell lysates assayed for SEK1 activation by Western blotting with anti-phospho-SEK1 (Thr223) antibody. Fold increase in phosphorylation was measured by densitometry. The experiment was repeated three times with similar results.
To further characterize the signal transduction pathway involved in the above-described JNK1 activation, we tested whether SEK1, the protein kinase immediately upstream of JNK1, was also activated by a SAAND. Activation of SEK1 occurs through phosphorylation of two residues of this protein, Ser219 and Thr223, by the protein kinase MEKK1. SW480 cells were treated with Compound A (1 μM) for various times, up to 6 hours, and extracts were analyzed by Western blot analysis using a phospho-Thr223-specific SEK1 antibody. The treatment with Compound A induced increased phosphorylation of SEK1, within 15-30 minutes, without changing the total cellular level of the endogenous SEK1 protein (see, FIG. 3A). By 1 hour there was a 9-fold induction, and this effect persisted for at least 6 hours (FIG. 3A).

[4] = tested on: MEKK1 in SW480 cells; assay: MEKK1 cleavage and activation (Western blot, autophosphorylation); type: cell-based, human
Description: FIG. 3B: SW480 cells were treated with Compound A (1 μM) and collected after either 1 or 2 days and the cell lysates were assayed for MEKK1 cleavage by Western blotting with anti-MEKK1 antibody. Minus (−) indicates DMSO treated control cells.
We then examined the effect of a SAAND on MEKK1, a protein kinase immediately upstream of SEK1. […] Previous studies indicate that MEKK1 is cleaved during activation by caspases (19). […] It is not clear, however, whether cGMP-activated PKG directly activates MEKK1 or whether the cleavage and activation of MEKK1 is an indirect effect of the process of apoptosis.

[5] = tested on: PARP in SW480 cells; assay: PARP cleavage by Western blot; type: cell-based, human; conditions: SW480 cells, Compound A 1 μM, 2 days
Description: SW480 cells were pre-treated with either DMSO (−) or Rp-8-pCPT-cGMPS (2 μM) for 2 hours and then treated with either DMSO (−) or Compound A (1 μM). Both the floating and attached cells were collected after 2 days, and the cell lysates were assayed for PARP cleavage by Western blotting with anti-PARP antibody. Fold increase in PARP cleavage was measured by densitometry of the 85 kD fragment.
Finally, we investigated whether activation of the PKG pathway is required for the induction of apoptosis by SAANDs. SW480 cells were treated with either DMSO or the PKG inhibitor Rp-8-pCPT-cGMPS (2 μM) for 2 hours and then the cells were treated with either DMSO or Compound A (1 μM) for 2 days. Both the floating and attached cells were collected, and the cell lysates were assayed for poly (ADP-ribose) polymerase (PARP) cleavage by Western blotting with an anti-PARP antibody. PARP is a 116 kD nuclear enzyme that converts NAD to nicotinamide and protein-linked ADP-ribose polymers, which are important for DNA repair and genomic maintenance. In cells that are undergoing apoptosis the 116 kD PARP protein is cleaved by caspase-3 into 85 and 25 kD fragments, thus resulting in loss of normal PARP function. This inactivation of PARP apparently prevents depletion of cellular levels of NAD and ATP, which are thought to be required for later events in apoptosis.

[6] = target: T1, GST-cGB-PDE5 fusion protein (cGMP binding sites of human PDE5A) (Homo sapiens, UniProt O76074); assay: cGMP binding assay (3H-cGMP competition); conditions: 3H-cGMP 2 μM, 22° C., 1 hour
T1 construct: made in house; host or cells: E. coli BL21 (DE3)

[7] = target: PDE 5 (i.e., peak A) (Homo sapiens, UniProt O76074); assay: Competitive binding with cGMP; conditions: PDE 5 (peak A)
[8] = tested on: PDE peak B; assay: Competitive binding with cGMP

COc1cc(/C=C2/C(C)=C(CC(=O)NCc3ccccc3)c3cc(F)ccc32)cc(OC)c1OC [Compound A, (Z)-5-fluoro-2-methyl-(3,4,5-trimethyl-oxybenzylidene)-3-(N-benzyl)-indenylacetamide]
duration of sustained JNK1 activation ([1]; Compound A 1 μM, time course): at least 24 hours | JNK1 activation ([1]; one hour, sulindac sulfide 50-500 μM, exisulind 100-600 μM, Compound A 0.1-5 μM, Compound B 1-50 μM): activated JNK1 | caspase-3 activation [2]: led to activation of caspase-3 | persistence of SEK1 phosphorylation [3]: at least 6 hours | time to increased phosphorylation of SEK1 [3]: 15 to 30 min | induction of SEK1 phosphorylation ([3]; by 1 hour): 9 fold | MEKK1 activity (autophosphorylation and phosphorylation of GST-SEK1) [4]: strong and transient activation of MEKK1 activity | MEKK1 cleavage ([4]; Compound A 1 μM, one or two days): cleavage of this protein | PARP cleavage [5]: induced PARP cleavage | competition with cGMP for the cGMP binding sites of GST-cGB-PDE5 [6]: None of the PDE5 inhibitors showed any competition with cGMP | competitive binding with cGMP [7]: competitively (with cGMP) bind | competitive binding with cGMP [8]: competitively (with cGMP) binds
